# Results: patent US9388444B2, “Use of glucosyltransferase gene” (The United States of America, as represented by the …, priority 2013, dated 2016)
# How the values were obtained:
# Gtf-1 = test: In vitro HPLC-MS glucosyltransferase activity assay with sonicated extract of recombinant S. cerevisiae [pYES2/NT/gft1]; type: biochemical, C. bombicola; conditions: for glucosyltransferase enzyme activity toward lipid substrate (appearance of glucoside product): UDP-glucose as sugar substrate, 30° C., 3 hours, HPLC-MS, product absent with control [pYES2/NT/lacZ] extract; for effect of lipid stock solvent on enzyme activity: solvent used to prepare 50 mM lipid stock solution
# Method: An in vitro enzyme activity assay is performed to verify the functional property of Gtf-1 expressed in the recombinant S. cereviciae [pYES2/NT/gft1]. In this plasmid, the expression of gtf-1 is regulated by a yeast GAL1 promoter that is inducible by the addition of galactose (FIG. 1). An HPLC-MS-based method is developed to assay for glucosyltransferase activity in recombinant S. cerevisiae expressing C. bombicola gft-1 gene cloned in the pYES2/NT/gft1 plasmid construct. As control samples, S. cerevisiae transformed with pYES2/NT/gft1CON and pYES2/NT/lacZ are included in the study. The growing and induction of S. cerevisiae cells is performed according to the protocol described in the manual of pYES2/NT Yeast Expression System (Invitrogen, Carlsbad, Calif.). Briefly, cells from long-term (−80° C.) storage stock cultures are streaked on Yeast Extract Peptone Dextrose (YPD) agar solid medium (1% w/v yeast extract, 2% w/v peptone, 2% w/v dextrose (D-(+)glucose), 2% w/v agar) and grown at 30° C. for 1 to 2 days. A single colony is picked to inoculate 5 ml of SC-U+Glu(2%) in a 25-ml Erlenmeyer flask. The culture is grown overnight at 30° C. and 200 rpm. A volume of the overnight culture, which is based on achieving a theoretical absorbance at 600 nm (A600 nm)=0.4 in the fresh culture, is added to 50 ml of SC-U+Raf(2%) medium in a 125-ml Erlenmeyer. After an overnight incubation (30° C., 200 rpm), A600 nm values of the cultures are recorded. Five ml of sterile 20% (w/v) D-(+)-galactose are added to each culture to induce expression of the cloned gene, and the cells are incubated for 4 hours at 30° C., 200 rpm. Cells are then harvested by centrifugation (Sorvall RC-5B Plus centrifuge; 5,000×g; 10 min; 4° C.) (ThermoFisher Scientific, Waltham, Mass.) with the supernatant being decanted. The pelleted cells are resuspended and washed with 5 ml cold water, undergo another centrifugation using same parameters with removal of the supernatant after centrifugation, and are resuspended in a volume of a Breaking Buffer (50 mM sodium phosphate at pH 7.4; 1 mM Na-EDTA; 5% v/v glycerol; 1 mM phenylmethylsulfonylfluoride (PMSF) which is added immediately before use) in 15-mL Corex centrifugation tube to give a theoretical A600 nm of 200. Cell suspension can be stored at −20° C. overnight and still retain glucosyltransferase activity. Cells are broken by sonication (Sonicator model W-385 equipped with a microtip probe; Heat-Systems, Inc., Farmingdale, N.Y.) for 10 to 15 seconds (with 30 seconds sample cooling on ice-water bath) at maximum probe-tolerant power setting. The sonicated cell suspension (SCS) is used in the reaction mixtures to assay for glycosylation activity.
# The reaction mixture for glycosylation assay is largely based on that described by Saerens et al. 2011b. The following procedure is used: 10 μl of a 50 mM-lipid substrate stock solution (which is prepared in one of the following solvents: DMF (dimethylformamide), DMSO ([…]), THF (tetrahydrofuran), ethylacetate, or ethanol) and 10 μl of a 50 mM-UDP-glucose solution (Sigma Aldrich, St. Louis, Mo.) are added to 30 μl of 50 mM potassium phosphate buffer (pH 7.5) in a 13×100 mm test tube on ice. 200 μl of the sonicated cell suspension is then added to the mixture of the two substrates. The final reaction mixture (250 μl) is incubated at 30° C. for 3 hours with frequent manual mixing (approximately every 10-15 minutes). The reaction is stopped by the addition of 200 μl of 2N HCl, followed by vigorous vortex mixing for approximately 30 to 60 seconds. The reaction mixture is extracted with 1 to 2 ml 1:1 v/v ethylether/ethylacetate mixture by vigorous vortex mixing. The tube is placed on lab bench undisturbed for phase separation to occur. Using a Hamilton syringe, the organic phase (upper layer) is carefully removed and is placed into a clean test tube (12×75 mm). The solvent is then evaporated by passing a stream of nitrogen gas over the solution, leaving a dry residue. […]
# [1] = aqueous solution of sophorolipid; cited from earlier work
Molecule,glucosyltransferase enzyme activity toward lipid substrate (appearance of glucoside product) (Gtf-1),further results
17-hydroxy-oleate [17-OH oleate],presence of glucosyltransferase enzyme activity is confirmed,–
"CN(C)C=O [DMF, dimethylformamide]",–,effect of lipid stock solvent on enzyme activity (Gtf-1): without adversely impacting on enzymatic activity
"C1CCOC1 [THF, tetrahydrofuran]",–,effect of lipid stock solvent on enzyme activity (Gtf-1): inhibits enzyme activity
CC(C)CCC[C@@H](C)[C@H]1CC[C@H]2[C@@H]3CC=C4C[C@@H](O)CC[C@]4(C)[C@H]3CC[C@]12C [cholesterol],presence of glucosyltransferase enzyme activity is confirmed,–
CC(C)[C@@H](C)/C=C/[C@@H](C)[C@H]1CC[C@H]2C3=CC=C4C[C@@H](O)CC[C@]4(C)[C@H]3CC[C@]12C [ergosterol],give the same results,–
CC[C@H](/C=C/[C@@H](C)[C@H]1CC[C@H]2[C@@H]3CC=C4C[C@@H](O)CC[C@]4(C)[C@H]3CC[C@]12C)C(C)C [stigmasterol],give the same results,–
CC[C@H](CC[C@@H](C)[C@H]1CC[C@H]2[C@@H]3CC=C4C[C@@H](O)CC[C@]4(C)[C@H]3CC[C@]12C)C(C)C [β-sitosterol],give the same results,–
sophorolipid,–,Surface tension [1]: 30-40 mN/m
